# In publication PMC11582101, “Unlocking the potential: unveiling tyrphostins with Michael-reactive cyanoacrylate motif as promising inhibitors of human 5-lipoxygenase” (Pflugers Archiv, 2024):
# Entries after “also recorded” stand apart in the source; their conditions may differ.
# Target: T1, 5-LO (Homo sapiens, UniProt P09917)
# T1 sequence (P09917 1-674): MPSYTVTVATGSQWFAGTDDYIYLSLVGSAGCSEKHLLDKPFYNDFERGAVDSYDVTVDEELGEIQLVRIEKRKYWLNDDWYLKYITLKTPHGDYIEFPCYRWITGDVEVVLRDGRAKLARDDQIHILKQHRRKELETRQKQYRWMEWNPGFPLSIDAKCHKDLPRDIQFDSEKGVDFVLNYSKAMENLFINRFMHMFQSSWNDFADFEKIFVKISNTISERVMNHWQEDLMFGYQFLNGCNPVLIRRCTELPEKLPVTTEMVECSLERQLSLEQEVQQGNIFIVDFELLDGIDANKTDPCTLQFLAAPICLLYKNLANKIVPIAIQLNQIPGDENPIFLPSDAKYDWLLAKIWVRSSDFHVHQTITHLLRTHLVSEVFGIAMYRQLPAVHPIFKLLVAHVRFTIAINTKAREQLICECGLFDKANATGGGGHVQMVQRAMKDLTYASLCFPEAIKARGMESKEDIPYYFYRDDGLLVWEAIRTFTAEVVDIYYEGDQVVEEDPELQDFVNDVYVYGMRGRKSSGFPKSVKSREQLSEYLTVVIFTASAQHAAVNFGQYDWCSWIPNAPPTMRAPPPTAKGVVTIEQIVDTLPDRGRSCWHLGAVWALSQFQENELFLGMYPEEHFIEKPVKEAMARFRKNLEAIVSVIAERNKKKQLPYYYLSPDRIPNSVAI
# Test: 5-LO product formation in intact PMNL
# Conditions: not given
row,Compound,IC50 [µM]
1,N#C/C(=C/c1cc(Cl)cc(Cl)c1)c1cccnc1 [RG14620],5.9
2,CC(C)c1cc(/C=C(\C#N)C(=O)NCCCc2ccccc2)cc(C(C)C)c1O [SU1498],0.76
3,CC(C)(C)c1cc(C=C(C#N)C#N)cc(C(C)(C)C)c1O [Tyrphostin A9],1.1

# Same assay, conditions: IC50 for inhibition of 5-LO product formation, PMNL, intact PMNL, 20 µM AA, 2.5 µM A23187; (95% CI), n = 3–6
row,Compound,IC50 [µM]
1,N#C/C(=C\c1ccc(O)c(O)c1)C(=O)NCc1ccccc1 [AG490],1.1
2,C[C@H](NC(=O)/C(C#N)=C/c1cccc(Br)n1)c1ccccc1 [WP1066],0.93

# Same assay, conditions: intact PMNL, 20 µM AA, 2.5 µM A23187; (95% CI), n = 3–6
row,Compound,"IC50 for inhibition of 5-LO product formation, PMNL"
1,N#C/C(=C\c1ccc(O)c(O)c1)C(=O)O [AG30],no inhibition
2,N#CC(C#N)=Cc1ccc([N+](=O)[O-])c(O)c1 [AG126],no inhibition
3,N#CC(C#N)=Cc1ccc(O)cc1 [Tyrphostin 8],no inhibition

# Same assay, conditions: intact PMNL, 20 µM AA, 2.5 µM A23187; (95% CI), n = 3–6; listed as tyrphostin 8
row,Compound,"IC50 for inhibition of 5-LO product formation, PMNL"
1,N#CC(C#N)=Cc1ccc(O)cc1 [Tyrphostin 8],failed to inhibit

# Target: T2, r5-LO_WT (Homo sapiens, UniProt P09917)
# T2 construct: made in house; host or cells: E. coli BL21 (DE3)
# T2 sequence (P09917 1-674): T1 sequence (P09917 1-674)
# Test: Covalent inhibitor binding by mass spectrometry, r5-LO_WT
# Conditions: 20 µM protein, 100 µM compound, at least 1 h RT
row,Compound,inhibitor adducts to r5-LO_WT detected by mass spectrometry
1,CC(C)(C)c1cc(C=C(C#N)C#N)cc(C(C)(C)C)c1O [Tyrphostin A9],did not detect mass shifts

# Target: T3, 12-LO (Homo sapiens, UniProt P18054)
# T3 sequence (P18054 1-663): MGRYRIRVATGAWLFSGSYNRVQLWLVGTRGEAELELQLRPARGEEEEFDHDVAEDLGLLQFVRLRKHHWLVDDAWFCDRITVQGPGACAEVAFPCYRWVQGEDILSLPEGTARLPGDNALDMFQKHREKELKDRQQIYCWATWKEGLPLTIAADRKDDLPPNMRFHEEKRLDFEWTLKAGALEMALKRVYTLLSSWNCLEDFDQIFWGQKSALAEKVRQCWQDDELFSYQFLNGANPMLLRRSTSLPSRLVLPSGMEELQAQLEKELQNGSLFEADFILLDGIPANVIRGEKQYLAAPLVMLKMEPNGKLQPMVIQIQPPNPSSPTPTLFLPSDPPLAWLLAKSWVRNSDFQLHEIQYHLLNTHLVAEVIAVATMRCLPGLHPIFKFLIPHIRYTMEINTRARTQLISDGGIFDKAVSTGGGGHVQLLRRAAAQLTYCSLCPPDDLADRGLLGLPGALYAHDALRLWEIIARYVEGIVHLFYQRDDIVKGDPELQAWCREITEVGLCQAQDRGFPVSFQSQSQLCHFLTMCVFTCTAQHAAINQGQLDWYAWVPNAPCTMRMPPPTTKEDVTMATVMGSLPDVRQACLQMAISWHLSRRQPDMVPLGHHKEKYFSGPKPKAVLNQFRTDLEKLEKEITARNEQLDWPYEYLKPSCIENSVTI
# Test: 12-HETE formation in platelets
# Conditions: 20 µM AA, 2.5 µM A23187, n = 3–6
row,Compound,"IC50 for inhibition of 12-HETE formation, platelets"
1,N#C/C(=C\c1ccc(O)c(O)c1)C(=O)NCc1ccccc1 [AG490],no inhibition
2,CC(C)(C)c1cc(C=C(C#N)C#N)cc(C(C)(C)C)c1O [Tyrphostin A9],no inhibition

# Tested on: U2OS cells
# Test: Multiplex live-cell high-content assay
# Conditions: 1 µM inhibitor, up to 48 h, normalized to DMSO
row,Compound,normalized healthy cell count [%]
1,CC(C)(C)c1cc(C=C(C#N)C#N)cc(C(C)(C)C)c1O [Tyrphostin A9],57

# Same assay, conditions: 1 µM inhibitor, up to 48 h, normalized to DMSO, listed as tyrphostin A9
row,Compound,normalized healthy cell count
1,CC(C)(C)c1cc(C=C(C#N)C#N)cc(C(C)(C)C)c1O [Tyrphostin A9],about 50%

# Same assay, conditions: 10 µM inhibitor, up to 48 h, normalized to DMSO
row,Compound,normalized healthy cell count
1,CN[C@@H]1C[C@H]2O[C@@](C)([C@@H]1OC)n1c3ccccc3c3c4c(c5c6ccccc6n2c5c31)C(=O)NC4 [Staurosporine],about 25%
2,CC(C)(C)c1cc(C=C(C#N)C#N)cc(C(C)(C)C)c1O [Tyrphostin A9],below 50%

# Tested on: 15-LO
# Test: 15-HETE formation in intact PMNL
# Conditions: not given
row,Compound,"IC50 for inhibition of 15-HETE formation, PMNL"
1,AG825,no inhibition

# Same assay, conditions: intact PMNL, 20 µM AA, 2.5 µM A23187; (95% CI), n = 3–6
row,Compound,"IC50 for inhibition of 15-HETE formation, PMNL"
1,N#C/C(=C\c1ccc(O)c(O)c1)C(=O)O [AG30],no inhibition
2,N#CC(C#N)=Cc1ccc([N+](=O)[O-])c(O)c1 [AG126],no inhibition
3,N#C/C(=C/c1cc(Cl)cc(Cl)c1)c1cccnc1 [RG14620],no inhibition
4,CC(C)c1cc(/C=C(\C#N)C(=O)NCCCc2ccccc2)cc(C(C)C)c1O [SU1498],did not show inhibition; also recorded: no inhibition
5,N#CC(C#N)=Cc1ccc(O)cc1 [Tyrphostin 8],no inhibition
6,CC(C)(C)c1cc(C=C(C#N)C#N)cc(C(C)(C)C)c1O [Tyrphostin A9],no inhibition
7,C[C@H](NC(=O)/C(C#N)=C/c1cccc(Br)n1)c1ccccc1 [WP1066],moderate inhibition

# Same assay, conditions: read-out: IC50 for inhibition of 15-HETE formation, PMNL; intact PMNL, 20 µM AA, 2.5 µM A23187; (95% CI), n = 3–6
row,Compound,IC50 [µM]
1,N#C/C(=C\c1ccc(O)c(O)c1)C(=O)NCc1ccccc1 [AG490],> 25
2,C[C@H](NC(=O)/C(C#N)=C/c1cccc(Br)n1)c1ccccc1 [WP1066],18
